In US12173039B1, “TPL2 inhibiting agents, uses thereof, and detection of TPL2” (Washington University, priority 2021, dated 2024):
“Also recorded” adds a separate entry of the source.

How the values were obtained:
[1] = test system: HPNE-KRAS^G12D cells, HEKT/tH-KRAS^G12V cells, conventional PDAC lines, and PDCLs; test: Anchorage independent soft agar growth assay, human KRAS-mutant lines; type: cell-based; conditions: HPNE-KRAS^G12D, HEKT/tH-KRAS^G12V, conventional PDAC lines, PDCLs
Method: Cells were seeded at 5000-15000 cells in 0.3% noble agar-DMEM suspension per well, in triplicate, in 24 well plate. For drug treatment, compound was added to cell suspension at 1× concentration. Seeded cells were fed with fresh 0.6% agar-DMEM mix once every 7-12 days. […] After 3-6 weeks, colonies were counted under microscope and imaged. Colony count was normalized to control and graphed in GraphPad Prism v7/8.

p-MEK, p-ERK, and p-RSK = test: Immunoblots of MAPK pathway markers in human cell lines; type: cell-based; conditions: for p-MEK and p-ERK levels: serum-free
Method: (§1) Standard immunoblotting procedure was followed. Cells were washed twice with ice-cold 1×PBS and lysed with ice-cold triton-X lysis buffer (25 mM Tris, pH 7.4, 150 mM NaCl, 5 mM EDTA, 1% Triton-X) containing 1× protease (10 μg mL-1 leupeptin, 700 ng mL-1 pepstatin, 170 ng mL-1 aprotinin, 1 mM PMSF) and phosphatase (10 mM NaF, 1 mM Na3VO4, 1 mM Na4P2O^7, 5 mM Na b-glycerophosphate) inhibitors. Lysates were quantified by Bradford assay (Thermo Scientific), normalized for concentration, and reduced and denatured with 6×SDS sample buffer followed by boiling for 5 minutes. 20-40 μg of protein per sample was resolved by SDS-PAGE, blotted on PVDF membrane and probed with primary antibodies (Cell Signaling Technologies: p-ERK1/2 (#4370), p-MEK1/2 (#9154), ERK1/2 (#4695), MEK1/2 (#8727), p-p105 (#4806), NFS2KB1 p105/p50 (#3035), p-IRAK4 (#11927), IRAK4 (#4363), ubiquitin (#43124), anti-HA (#3724), p-p90RSK (#11989), RSK1/2/3 (#9355), p-TPL2 (#4491), PARP (#9532), p-B-RAF S445 (#2696), BRAF (#9433S). Santa Cruz Biotechnology: GAPDH (#sc-32233), p-p65 S536 (#sc101752). Thermo Fisher Scientific: p-55 TPL2 (#PA5-36635). EMD Millipore: IRAK4 (#07-418). R&D systems: TPL2/MAP3K8 (#MAB4586). Novus Biologicals: anti-AU1 (#NB600-453). Abcam: p-p65 S276 (#ab194726)). Membranes were incubated with appropriate HRP-conjugated secondary antibodies (anti-mouse or anti-rabbit, (1:5000 dilution), Jackson Laboratory) and imaged using chemiluminescent substrate. Additional steps for immunoprecipitation include incubation of soluble fraction lysate with anti-HA magnetic beads (Thermo Scientific cat #88837) overnight at 4° C., washing, and elution using 1×SDS sample buffer and boiling as mentioned in manufacturer's protocol.

p-p105, p-p65 = test: Immunoblots of NF-κB markers in PDAC cells; type: cell-based, human
Method: as §1

[2] = test system: serum-response element (SRE); test: Serum-response element (SRE) luciferase reporter assay; type: cell-based, human
Method: (§2) Cells stably expressing plasmid encoding serum-response-element (SRE) or NFKB promoter driven Firefly luciferase and constitutive Renilla luciferase were seeded at equal density per well and treatment was initiated the next day for 16-24 duration. Alternatively, 293T reporter cells were transfected in duplicate or triplicate with 1 μg of appropriate plasmid DNA. Medium was replaced 16-18 hours later and at 48 hours post-transfection reporter activity was measured using Dual-Glo® Luciferase Assay System. Data was acquired using SpectraMax i3Microplate Reader and analysis was performed by calculating ratio of firefly:renilla. Values were normalized to control and graphed using GraphPad Prism v7/8 software.

NF-κB reporter activity = test: NF-κB luciferase reporter assay; type: cell-based, human; conditions: KRAS-mutant PDAC cells (PANC-1); serial dilutions from 20 μM; 18 hours
Method: as §2

Hs695T cells [3] = test: Drug response and viability assay, Hs695T; type: cell-based, human
Method: Cells were seeded at 1500-2500 cells per well in triplicates, in 96 well format. Next day, appropriate inhibitor was added in serial dilution from 1.00×102 μM or indicated single doses. Vehicle (DMSO) was added to match volume of inhibitor used for highest concentration. After 96-120 hours, 5× AlamarBlue® reagent (resazurin sodium salt, Sigma) was added to wells and incubated for 2-4 hours. Fluorescence at 585 nm (excitation 555 nm) was measured by SpectraMax i3 Microplate Reader. Raw values were normalized to vehicle, analyzed and graphed using GraphPad Prism v7/8 software.

Hs695T cells [4] = test: Cell proliferation assay, Hs695T; type: cell-based, human
Method: (§3) Cells were seeded in triplicate or quadruplicate at indicated density per well. When applicable, appropriate drug compound was added to cells the next day. Viable cells were counted using trypan blue dye exclusion and BioRad TC20 Automated Cell Counter at each time point.

IGROV1 cells [5] = test: Cell proliferation assay, IGROV1; type: cell-based, human
Method: as §3

KRAS mutant cell lines = test: Clonogenic 2D assay, KRAS-mutant and PDAC lines; type: cell-based, human; conditions: HPNE-KRAS^G12D, HEKT/tH-KRAS^G12V, conventional PDAC lines, PDCLs
Method: (§4) Cells were seeded at 500-1000 cells per well (6 well plate format) or 200-1000 cells per well (12 well format) in 10% serum media. For drug treatment, compound was added at time of seeding at indicated concentration. Media was replenished as needed over course of incubation. After 3-5 weeks, colonies were fixed with 4% formaldehyde, stained with 0.5% crystal violet and scanned using document scanner. Images were quantified using particle analyzer on ImageJ software and values were normalized to vehicle.

IGROV1 cells [6] = test: Clonogenic 2D assay, IGROV1; type: cell-based, human
Method: as §4

orthotopic KI tumors = test: Orthotopic implantation of murine KI PDAC cells; type: in vivo; conditions: KI tumors in syngeneic FVB/NJ mice; 30 mg/kg, 14 days
Method: For subcutaneous xenograft, approximately 5 million cells per flank were implanted into 6-week-old athymic nude mice (NU/J, Jackson Laboratory). When applicable, treatment with drug compound was initiated when tumors were palpable. FIRINOX (25 mg/kg 5-FU, 17.5 mg/kg irinotecan, and 3.35 mg/kg oxaliplatin) was administered via intraperitoneal injection weekly in 50 μL PBS. TPL2i was administered by intraperitoneal injection at 10 mg/kg in 40 μL DMSO, 5 days per week. Mice in the control group were treated with vehicle. Tumor volume was calculated as width^2×(length×0.5). Tumors were measured and mice were weighed 3 days per week. For orthotopic implantation, murine KI PDAC cells were injected into the pancreas of 7-week-old female FVB/NJ mice (Jackson Laboratory), as previously described (see e.g., Kim et al. (2009) Nat Protoc. 4 (11): 1670-1680). Six days after implantation, treatment with vehicle, FIRINOX (same dose as above), or TPL2i (30 mg/kg) was initiated for 14 days, at which time all mice were sacrificed. In vivo tumor progression was monitored using ultrasound (VScan, GE Healthcare) with final day representative tumor images shown.

[7] = test system: poly (ADP-ribose) polymerase (PARP); test: Immunoblot of PARP cleavage; type: cell-based, human; conditions: PDAC lines; cotreatment with SN-38, 16 hours
Method: as §1, with “Membranes were incubated with appropriate HRP-conjugated secondary antibodies (anti-mouse or anti-rabbit, (1:5000 dilution), Jackson Laboratory) and imaged using chemiluminescent substrate. Additional steps for immunoprecipitation include incubation of soluble fraction lysate with anti-HA magnetic beads (Thermo Scientific cat #88837) overnight at 4° C., washing, and elution using 1×SDS sample buffer and boiling as mentioned in manufacturer's protocol.” left out

[8] = test system: LPS-induced TNF-α production; conditions: human monocytes; cited from earlier work
[9] = HPAC cells, 16 hours, 10% serum

## N#Cc1cnc2cnc(NCc3cccnc3)cc2c1Nc1ccc(F)c(Cl)c1 [TPL2i, 4-[(3-Chloro-4-fluorophenyl)amino]-6-[(3-pyridinylmethyl)amino]-1,7-naphthyridine-3-carbonitrile]
[1]
  3-dimensional (3D) AI growth: dose-dependently suppressed
p-MEK, p-ERK, and p-RSK; 293T cells expressing KRAS^G12V, 24 hours
  p-MEK and p-ERK levels: dose-dependently suppressed
p-MEK, p-ERK, and p-RSK; 293T cells transfected with oncogenic BRAF^V600E, 24 hours
  p-MEK and p-ERK: neither TPL2i nor IRAK4i suppressed
p-MEK, p-ERK, and p-RSK; BxPc-3 PDAC line (BRAF mutation, WT KRAS)
  p-MEK and p-ERK / MAPK activity: neither TPL2i nor IRAK4i suppressed and not
p-MEK, p-ERK, and p-RSK; HEK T/tH cells with CM from HEK-T/tH KRAS^G12V cells
  conditioned medium-induced p-TPL2, p-IRAK4, p-MEK, and p-ERK levels: completely blocked
p-MEK, p-ERK, and p-RSK; [9]
  Gemcitabine-induced p-MEK and p-ERK levels: suppressible
p-MEK, p-ERK, and p-RSK; Hs695T cells (BRAF^V600E, MAP3K8^E188K), 24 hours, 10% serum
  p-ERK and p-MEK / MAPK activity: significantly suppressed
p-MEK, p-ERK, and p-RSK; IGROV1 (MAP3K8^R442H), 1 μM, 2 hours
  p-MEK, p-ERK, and p-RSK / MAPK activity: completely blocked; also recorded: completely abolished
p-MEK, p-ERK, and p-RSK; PDAC lines, cotreatment, 16 hours
  SN-38-induced p-MEK, p-ERK, and p-RSK: significantly attenuated
p-MEK, p-ERK, and p-RSK; Pa01C cells, incremental doses
  p-BRAF: without affecting
  p-MEK and p-ERK: dose-dependently blocked
p-MEK, p-ERK, and p-RSK; multiple KRAS-mutant PDAC lines, 36 hours
  p-MEK and p-ERK levels: dose-dependently suppressed
p-p105, p-p65; 3 out of 4 cell lines
  p-p65 at S276: potently suppressed
p-p105, p-p65; PDAC cell lines
  p50 processing: did not lead to increased p50 processing
  p-p65 at S536: not
p-p105, p-p65; PDAC cell lines, TPL2 inhibition
  p-p105: dose-dependently suppressed
p-p105, p-p65; Pa01C cells
  p-p105 in SN-38-treated cells: additionally suppressed
[2]; [9]
  Gemcitabine-induced SRE activity: suppressible
[2]; KRAS-mutant HPAC, MIA Paca-2, and Pa01C cells
  SRE reporter activity (MAPK cascades): dose-dependently suppressed
NF-κB reporter activity
  NF-κB reporter activity: dose-dependently suppressed
Hs695T cells [3]
  viability: suppressed
Hs695T cells [4]
  in vitro proliferation: significantly suppressed
IGROV1 cells [5]
  proliferation: significantly decreased
KRAS mutant cell lines
  2D clonogenic growth: dose-dependently suppressed
IGROV1 cells [6]
  colony forming ability: significantly decreased
Orthotopic KI tumors
  growth of orthotopic tumors: effective in significantly suppressing growth
[7]
  PARP cleavage: increased
[8]
  LPS-induced TNF-α production: can suppress
